From ChEMBL document CHEMBL1795322, “Inhibition of the cellular function of perforin by 1-amino-2,4-dicyanopyrido[1,2-a]benzimidazoles” (Bioorg Med Chem, 2011)

Tests used:
[1] = target: T1, Perforin-1 (Homo sapiens) (UniProt P14222); assay: Inhibition of perforin released from human KHYG-1 NK cells assessed as inhibition of perforin mediated lysis of human K562 cells at 20 uM in presence of 0.1% BSA by [51Cr] release assay; format: cell-based
T1 sequence (whole entry): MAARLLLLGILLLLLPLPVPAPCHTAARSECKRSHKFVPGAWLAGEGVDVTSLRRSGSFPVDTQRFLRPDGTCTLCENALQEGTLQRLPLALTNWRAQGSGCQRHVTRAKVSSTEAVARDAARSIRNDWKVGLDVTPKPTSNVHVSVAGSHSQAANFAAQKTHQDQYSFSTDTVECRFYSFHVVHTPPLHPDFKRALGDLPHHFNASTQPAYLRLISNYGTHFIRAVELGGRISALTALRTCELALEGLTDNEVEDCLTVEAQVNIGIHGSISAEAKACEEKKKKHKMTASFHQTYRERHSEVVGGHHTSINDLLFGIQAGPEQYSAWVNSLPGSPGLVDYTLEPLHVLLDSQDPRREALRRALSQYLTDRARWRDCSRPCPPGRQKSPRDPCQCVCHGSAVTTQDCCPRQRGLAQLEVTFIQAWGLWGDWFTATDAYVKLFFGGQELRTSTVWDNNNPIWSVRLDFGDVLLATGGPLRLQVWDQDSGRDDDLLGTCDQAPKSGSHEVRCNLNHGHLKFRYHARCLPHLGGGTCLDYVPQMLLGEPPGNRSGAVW

[2] = target: T1, Perforin-1 (Homo sapiens); assay: Inhibition of perforin released from human KHYG-1 NK cells assessed as inhibition of perforin mediated lysis of human K562 cells at 20 uM in presence of 10% mouse serum by [51Cr] release assay; format: cell-based
[3] = Toxicity against human KHYG-1 NK cells assessed as cell viability at 20 uM incubated for 24 hrs at 37 degC y Trypan blue exclusion method; format: cell-based; conditions: read-out: Activity
[4] = Inhibition of recombinant perforin mediated lysis of human Jurkat cells pre-incubated for 30 mins with perforin followed by incubation with Jurkat cells at 37 degC for 4 hrs in presence of 0.1% BSA by [51Cr] release assay

Row | SMILES | inhibition [1] | inhibition [2] | viability at 24 h, 20 µM [3] | IC50 [4]
1 | CCNC(=O)COc1ccc(-c2c(C#N)c(N)n3c(nc4ccccc43)c2C#N)cc1 | 0% | 11% | 77% | –
2 | CCCNC(=O)COc1ccc(-c2c(C#N)c(N)n3c(nc4ccccc43)c2C#N)cc1 | 41% | 22% | 90% | –
3 | CC(C)NC(=O)COc1ccc(-c2c(C#N)c(N)n3c(nc4ccccc43)c2C#N)cc1 | 52% | 22% | 70% | –
4 | Cc1cccc2c1nc1c(C#N)c(-c3ccc(OCC(N)=O)cc3)c(C#N)c(N)n12 | 10% | 8% | 88% | –
5 | N#Cc1c(-c2ccc(C(N)=O)cc2)c(C#N)c2nc3ccccc3n2c1N | 7% | 6% | 79% | –
6 | N#Cc1c(-c2ccc(C(=O)NCCCO)cc2)c(C#N)c2nc3ccccc3n2c1N | 0% | 7% | 86% | –
7 | N#Cc1c(-c2ccc(C(=O)NCC(O)CO)cc2)c(C#N)c2nc3ccccc3n2c1N (configuration not stated) | 0% | 0% | 84% | –
8 | N#Cc1c(-c2ccc(C(=O)NCCO)cc2)c(C#N)c2nc3ccccc3n2c1N | 4% | 12% | 89% | –
9 | CNC(=O)c1ccc(-c2c(C#N)c(N)n3c(nc4ccccc43)c2C#N)cc1 | 9% | 12% | 84% | –
10 | CCNC(=O)c1ccc(-c2c(C#N)c(N)n3c(nc4ccccc43)c2C#N)cc1 | 19% | 12% | 53% | –
11 | N#Cc1c(-c2ccc(OCCO)cc2)c(C#N)c2nc3ccccc3n2c1N | 15% | 16% | 85% | –
12 | CN(C)C(=O)CCc1ccc(-c2c(C#N)c(N)n3c(nc4ccccc43)c2C#N)cc1 | 49% | 64% | 96% | –
13 | CN(C)C(=O)COc1ccc(-c2c(C#N)c(N)n3c(nc4ccccc43)c2C#N)cc1 | 34% | 25% | 78% | –
14 | N#Cc1c(-c2ccc(OCC(=O)NCCO)cc2)c(C#N)c2nc3ccccc3n2c1N | 0% | 6% | 92% | –
15 | Cc1cc2c(c(=S)[nH]1)C(=O)O/C2=C\c1csc2ccccc12 | 60% | 6% | 88% | 0.97 µM
16 | N#Cc1c(-c2ccc(OCC(N)=O)cc2)c(C#N)c2nc3ccccc3n2c1N | 18% | 2% | 86% | –
17 | N#Cc1c(-c2ccc(C(=O)NCCc3ccncc3)cc2)c(C#N)c2nc3ccccc3n2c1N | 15% | 20% | 62% | –
18 | Cc1ccc2c(nc3c(C#N)c(-c4ccc(OCC(N)=O)cc4)c(C#N)c(N)n32)c1C | 36% | 7% | 60% | –
19 | Cc1cc2nc3c(C#N)c(-c4ccc(OCC(N)=O)cc4)c(C#N)c(N)n3c2cc1C | 38% | 5% | 62% | –
20 | N#Cc1c(-c2ccc(C(=O)NCCN3CCOCC3)cc2)c(C#N)c2nc3ccccc3n2c1N | 1% | 5% | 85% | –
21 | CC(O)CNC(=O)c1ccc(-c2c(C#N)c(N)n3c(nc4ccccc43)c2C#N)cc1 (configuration not stated) | 0% | 0% | 68% | –
22 | CNC(=O)COc1ccc(-c2c(C#N)c(N)n3c(nc4ccccc43)c2C#N)cc1 | 41% | 42% | 84% | –
